According to patent publication US7507739B2, “6-[(substituted)phenyl]triazolopyrimidines as anticancer agents” (Wyeth, priority 2003, dated 2009):
Marks after values point to notes of the source that are not given here.

How the values were obtained:
HeLa cells = assay: Cell cycle analysis with HeLa cells; type: cell-based, human; conditions: 18 hr
Method: HeLa cells are harvested by trypsinization, washed, counted and distributed to wells of 12-well plates at 125,000 cells per well in 2 mL medium. Cells are cultured overnight. […] Cells are continued in culture for 18 hr after compound addition, then cells in each well are harvested (taking care to recover both adherent and non-adherent cells) and processed using the CycleTEST PLUS kit (Becton Dickinson Immunocytometry Systems, San Jose, Calif.). Flow cytometry is done with a FACSort instrument (Becton Dickinson).
This procedure measures the percentages of cells in a population that are in the G1, S, and G2/M phases of the cell cycle. It utilizes staining of cell nuclei with propidium iodide and analysis by flow cytometry.

[1] = system: DLD1 Human Colon Carcinoma; assay: Human tumor xenograft test, DLD1; type: in vivo; conditions: days 1, 5, 9, 13
Method: The ability of compounds of this invention to inhibit tumor growth in animals is studied in the athymic mouse xenograft standard pharmacological test. Female nu/nu mice in an outbred albino background are obtained from Charles River Laboratories (Wilmington, Mass.). Animals are injected subcutaneously on the flank with the desired tumor cell suspension. Several days later, mice with tumors of approximately 150 mm^3 are selected from those injected (staged) and randomly distributed into groups of 5-10. The day of staging is called day 0. Compounds of the invention, usually formulated in saline (exceptions are noted in tables), are administered to animals by intravenous injection or oral gavage on various schedules starting on day 0 or 1, as noted in the tables. The control group in each experiment is dosed with vehicle on the same schedule. Tumor size is measured every 3-7 days with calipers in two orthogonal dimensions, and tumor volume is calculated from the formula volume=[(length×width^2)/2].
Tumor/Control (T/C) is obtained by dividing the mean tumor volume of the treated group by the mean tumor volume of the control group on each measurement day. A treatment dose is defined as active if it produced a statistically significant T/C of 0.50 or less. A p value≦0.05, determined by one-side Student's t-test, is required for statistical significance. A treatment dose is defined as toxic if more than 10% of the animals died from a compound-related toxicity.

CNCCCOc1cc(F)c(-c2c(Cl)nc3ncnn3c2N[C@@H](C)C(F)(F)F)c(F)c1.Cl [Example 2a, 5-Chloro-6-{2,6-difluoro-4-[3-(methylamino)propoxy]phenyl}-N-[(1S)-2,2,2-trifluoro-1-methylethyl][1,2,4]triazolo[1,5-a]pyrimidin-7-amine hydrogen chloride]
Percent in Cell Cycle Phase >4N (HeLa cells; 20 nM): 2% | Percent in Cell Cycle Phase Apop (HeLa cells; 20 nM): 28% | Percent in Cell Cycle Phase G1 (HeLa cells; 20 nM): 41% | Percent in Cell Cycle Phase G2/M (HeLa cells; 20 nM): 16% | Percent in Cell Cycle Phase S (HeLa cells; 20 nM): 14% | Percent in Cell Cycle Phase >4N (HeLa cells; 30 nM): 2% | Percent in Cell Cycle Phase Apop (HeLa cells; 30 nM): 62% | Percent in Cell Cycle Phase G1 (HeLa cells; 30 nM): 12% | Percent in Cell Cycle Phase G2/M (HeLa cells; 30 nM): 16% | Percent in Cell Cycle Phase S (HeLa cells; 30 nM): 10% | Percent in Cell Cycle Phase >4N (HeLa cells; 40 nM): 2% | Percent in Cell Cycle Phase Apop (HeLa cells; 40 nM): 44% | Percent in Cell Cycle Phase G1 (HeLa cells; 40 nM): 5% | Percent in Cell Cycle Phase G2/M (HeLa cells; 40 nM): 39% | Percent in Cell Cycle Phase S (HeLa cells; 40 nM): 9% | Percent in Cell Cycle Phase >4N (HeLa cells; 50 nM): 4% | Percent in Cell Cycle Phase Apop (HeLa cells; 50 nM): 25% | Percent in Cell Cycle Phase G1 (HeLa cells; 50 nM): 5% | Percent in Cell Cycle Phase G2/M (HeLa cells; 50 nM): 58% | Percent in Cell Cycle Phase S (HeLa cells; 50 nM): 9% | Percent in Cell Cycle Phase >4N (HeLa cells; 60 nM): 4% | Percent in Cell Cycle Phase Apop (HeLa cells; 60 nM): 24% | Percent in Cell Cycle Phase G1 (HeLa cells; 60 nM): 4% | Percent in Cell Cycle Phase G2/M (HeLa cells; 60 nM): 58% | Percent in Cell Cycle Phase S (HeLa cells; 60 nM): 9% | Percent in Cell Cycle Phase >4N (HeLa cells; 70 nM): 4% | Percent in Cell Cycle Phase Apop (HeLa cells; 70 nM): 22% | Percent in Cell Cycle Phase G1 (HeLa cells; 70 nM): 6% | Percent in Cell Cycle Phase G2/M (HeLa cells; 70 nM): 57% | Percent in Cell Cycle Phase S (HeLa cells; 70 nM): 11% | Percent in Cell Cycle Phase >4N (HeLa cells; 80 nM): 4% | Percent in Cell Cycle Phase Apop (HeLa cells; 80 nM): 26% | Percent in Cell Cycle Phase G1 (HeLa cells; 80 nM): 7% | Percent in Cell Cycle Phase G2/M (HeLa cells; 80 nM): 52% | Percent in Cell Cycle Phase S (HeLa cells; 80 nM): 11% | Percent in Cell Cycle Phase >4N (HeLa cells; 90 nM): 4% | Percent in Cell Cycle Phase Apop (HeLa cells; 90 nM): 30% | Percent in Cell Cycle Phase G1 (HeLa cells; 90 nM): 7% | Percent in Cell Cycle Phase G2/M (HeLa cells; 90 nM): 46% | Percent in Cell Cycle Phase S (HeLa cells; 90 nM): 13% | Percent in Cell Cycle Phase >4N (HeLa cells; 100 nM): 4% | Percent in Cell Cycle Phase Apop (HeLa cells; 100 nM): 34% | Percent in Cell Cycle Phase G1 (HeLa cells; 100 nM): 7% | Percent in Cell Cycle Phase G2/M (HeLa cells; 100 nM): 41% | Percent in Cell Cycle Phase S (HeLa cells; 100 nM): 15% | Percent in Cell Cycle Phase >4N (HeLa cells; 110 nM): 4% | Percent in Cell Cycle Phase Apop (HeLa cells; 110 nM): 37% | Percent in Cell Cycle Phase G1 (HeLa cells; 110 nM): 9% | Percent in Cell Cycle Phase G2/M (HeLa cells; 110 nM): 37% | Percent in Cell Cycle Phase S (HeLa cells; 110 nM): 14% | Percent in Cell Cycle Phase >4N (HeLa cells; 120 nM): 4% | Percent in Cell Cycle Phase Apop (HeLa cells; 120 nM): 39% | Percent in Cell Cycle Phase G1 (HeLa cells; 120 nM): 8% | Percent in Cell Cycle Phase G2/M (HeLa cells; 120 nM): 36% | Percent in Cell Cycle Phase S (HeLa cells; 120 nM): 15% | T/C on day 0 ([1]; DLD1, 10 mg/kg IV): 1.00 | T/C on day 7 ([1]; DLD1, 10 mg/kg IV): 0.66 | T/C on day 14 ([1]; DLD1, 10 mg/kg IV): 0.65 | T/C on day 21 ([1]; DLD1, 10 mg/kg IV): 0.72 | T/C on day 0 ([1]; DLD1, 15 mg/kg IV): 1.00 | T/C on day 7 ([1]; DLD1, 15 mg/kg IV): 0.59 | T/C on day 14 ([1]; DLD1, 15 mg/kg IV): 0.54 | T/C on day 21 ([1]; DLD1, 15 mg/kg IV): 0.74 | T/C on day 0 ([1]; DLD1, 20 mg/kg IV): 1.00 | T/C on day 7 ([1]; DLD1, 20 mg/kg IV): 0.46* | T/C on day 14 ([1]; DLD1, 20 mg/kg IV): 0.33 | T/C on day 21 ([1]; DLD1, 20 mg/kg IV): 0.53

CC[C@]1(O)C[C@H]2CN(CCc3c([nH]c4ccccc34)[C@@](C(=O)OC)(c3cc4c(cc3OC)N(C=O)[C@H]3[C@@](O)(C(=O)OC)[C@H](OC(C)=O)[C@]5(CC)C=CCN6CC[C@]43[C@@H]65)C2)C1 [Vincristine, reference compound]
Percent in Cell Cycle Phase >4N (HeLa cells; 1 nM): 2% | Percent in Cell Cycle Phase Apop (HeLa cells; 1 nM): 6% | Percent in Cell Cycle Phase G1 (HeLa cells; 1 nM): 57% | Percent in Cell Cycle Phase G2/M (HeLa cells; 1 nM): 17% | Percent in Cell Cycle Phase S (HeLa cells; 1 nM): 18% | Percent in Cell Cycle Phase >4N (HeLa cells; 2 nM): 2% | Percent in Cell Cycle Phase Apop (HeLa cells; 2 nM): 8% | Percent in Cell Cycle Phase G1 (HeLa cells; 2 nM): 55% | Percent in Cell Cycle Phase G2/M (HeLa cells; 2 nM): 18% | Percent in Cell Cycle Phase S (HeLa cells; 2 nM): 18% | Percent in Cell Cycle Phase >4N (HeLa cells; 4 nM): 2% | Percent in Cell Cycle Phase Apop (HeLa cells; 4 nM): 9% | Percent in Cell Cycle Phase G1 (HeLa cells; 4 nM): 50% | Percent in Cell Cycle Phase G2/M (HeLa cells; 4 nM): 23% | Percent in Cell Cycle Phase S (HeLa cells; 4 nM): 17% | Percent in Cell Cycle Phase >4N (HeLa cells; 6 nM): 3% | Percent in Cell Cycle Phase Apop (HeLa cells; 6 nM): 11% | Percent in Cell Cycle Phase G1 (HeLa cells; 6 nM): 45% | Percent in Cell Cycle Phase G2/M (HeLa cells; 6 nM): 27% | Percent in Cell Cycle Phase S (HeLa cells; 6 nM): 15% | Percent in Cell Cycle Phase >4N (HeLa cells; 8 nM): 3% | Percent in Cell Cycle Phase Apop (HeLa cells; 8 nM): 12% | Percent in Cell Cycle Phase G1 (HeLa cells; 8 nM): 40% | Percent in Cell Cycle Phase G2/M (HeLa cells; 8 nM): 32% | Percent in Cell Cycle Phase S (HeLa cells; 8 nM): 14% | Percent in Cell Cycle Phase >4N (HeLa cells; 10 nM): 3% | Percent in Cell Cycle Phase Apop (HeLa cells; 10 nM): 16% | Percent in Cell Cycle Phase G1 (HeLa cells; 10 nM): 27% | Percent in Cell Cycle Phase G2/M (HeLa cells; 10 nM): 41% | Percent in Cell Cycle Phase S (HeLa cells; 10 nM): 13% | Percent in Cell Cycle Phase >4N (HeLa cells; 15 nM): 4% | Percent in Cell Cycle Phase Apop (HeLa cells; 15 nM): 19% | Percent in Cell Cycle Phase G1 (HeLa cells; 15 nM): 20% | Percent in Cell Cycle Phase G2/M (HeLa cells; 15 nM): 44% | Percent in Cell Cycle Phase S (HeLa cells; 15 nM): 14% | Percent in Cell Cycle Phase >4N (HeLa cells; 20 nM): 4% | Percent in Cell Cycle Phase Apop (HeLa cells; 20 nM): 18% | Percent in Cell Cycle Phase G1 (HeLa cells; 20 nM): 15% | Percent in Cell Cycle Phase G2/M (HeLa cells; 20 nM): 51% | Percent in Cell Cycle Phase S (HeLa cells; 20 nM): 12% | Percent in Cell Cycle Phase >4N (HeLa cells; 25 nM): 4% | Percent in Cell Cycle Phase Apop (HeLa cells; 25 nM): 17% | Percent in Cell Cycle Phase G1 (HeLa cells; 25 nM): 14% | Percent in Cell Cycle Phase G2/M (HeLa cells; 25 nM): 52% | Percent in Cell Cycle Phase S (HeLa cells; 25 nM): 13% | Percent in Cell Cycle Phase >4N (HeLa cells; 30 nM): 4% | Percent in Cell Cycle Phase Apop (HeLa cells; 30 nM): 19% | Percent in Cell Cycle Phase G1 (HeLa cells; 30 nM): 12% | Percent in Cell Cycle Phase G2/M (HeLa cells; 30 nM): 55% | Percent in Cell Cycle Phase S (HeLa cells; 30 nM): 11% | Percent in Cell Cycle Phase >4N (HeLa cells; 40 nM): 4% | Percent in Cell Cycle Phase Apop (HeLa cells; 40 nM): 18% | Percent in Cell Cycle Phase G1 (HeLa cells; 40 nM): 8% | Percent in Cell Cycle Phase G2/M (HeLa cells; 40 nM): 57% | Percent in Cell Cycle Phase S (HeLa cells; 40 nM): 13%
